Paper PMC6934184, “Selective DNA-PKcs inhibition extends the therapeutic index of localized radiotherapy and chemotherapy” (The Journal of Clinical Investigation, 2019)

Target: T1, MAP4K1 (HPK1) (Homo sapiens, UniProt Q92918)
T1 construct: purchased Thermo Fisher Scientific (Life Technologies) SelectScreen
Test: SelectScreen LanthaScreen
Assay type: binding
Conditions: read-out: % displacement
In short: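 NU5455 was profiled across the SelectScreen Broad panel of kinase activity and binding assays. Z'LYTE reactions such as CSF1R ran at apparent Km ATP, while the Adapta CAMK1 assay used ATP listed as 10. Values are given as percent.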

T1 sequence (Q92918 whole entry): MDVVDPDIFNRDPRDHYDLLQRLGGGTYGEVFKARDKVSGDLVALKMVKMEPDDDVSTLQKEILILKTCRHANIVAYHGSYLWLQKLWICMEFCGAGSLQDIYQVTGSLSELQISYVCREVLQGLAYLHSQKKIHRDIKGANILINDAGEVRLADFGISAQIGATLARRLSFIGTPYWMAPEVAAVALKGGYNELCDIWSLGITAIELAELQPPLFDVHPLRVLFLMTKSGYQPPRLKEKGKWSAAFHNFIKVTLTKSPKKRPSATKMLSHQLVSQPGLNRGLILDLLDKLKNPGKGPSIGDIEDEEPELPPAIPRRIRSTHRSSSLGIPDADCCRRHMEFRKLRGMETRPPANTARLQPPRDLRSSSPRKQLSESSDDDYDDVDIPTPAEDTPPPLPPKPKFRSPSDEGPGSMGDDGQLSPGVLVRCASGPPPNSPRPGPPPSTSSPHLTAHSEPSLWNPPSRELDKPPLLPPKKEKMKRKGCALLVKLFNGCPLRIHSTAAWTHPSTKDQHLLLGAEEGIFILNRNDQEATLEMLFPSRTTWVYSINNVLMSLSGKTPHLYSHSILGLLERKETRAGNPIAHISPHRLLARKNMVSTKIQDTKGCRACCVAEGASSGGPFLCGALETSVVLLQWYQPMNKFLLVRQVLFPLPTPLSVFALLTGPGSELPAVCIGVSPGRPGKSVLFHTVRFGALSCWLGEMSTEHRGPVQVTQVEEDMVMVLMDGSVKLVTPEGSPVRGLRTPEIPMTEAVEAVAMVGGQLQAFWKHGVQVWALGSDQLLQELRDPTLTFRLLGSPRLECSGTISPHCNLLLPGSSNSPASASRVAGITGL

SMILES: CN(C(=O)CN1CCOCC1)c1ccc2sc3c(-c4cccc5c(=O)cc(N6CC7CCC(C6)O7)oc45)cccc3c2c1 [NU5455]
- inhibition at 1 µM: 1.6%
